Test results from the supplement of paper PMC10331698.
± gives the standard deviation of the averaged measurements.

Key:
Assay in all cases: level (log10 ratio to DMSO vehicle control); higher = higher biomarker level / cell amount than vehicle control
[1] = compound: O=S(=O)(Cl)C(F)(F)C(F)(F)C(F)(F)C(F)(F)C(F)(F)C(F)(F)C(F)(F)C(F)(F)F [Perfluoro-1-octanesulfonyl chloride]; conditions: in DMSO
Experimental: (§1)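 BioMAP Diversity Plus panel of 12 human primary cell co-culture systems (3C, 4H, LPS, SAg, BT, BF4T, BE3C, CASM3C, HDF3CGF, KF3CT, MyoF, Mphg). Compounds were added 1 h before stimulation and left for 24 h (MyoF 48 h; BT 72 h for soluble read-outs or 6 d for IgG). Biomarkers were read by ELISA, cytotoxicity by SRB, PBMC viability and proliferation by Alamar Blue. Each well value was divided by the mean of 8 DMSO control wells on the same plate and log10 transformed; duplicate blinded samples were tested at 4 concentrations.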

[2] = compound: NC(=O)C(F)(F)C(F)(F)C(F)(F)C(F)(F)F [Nonafluoropentanamide]; conditions: in DMSO
Experimental: as §1

[3] = compound: C=C(C)C(=O)OCCC(F)(F)C(F)(F)C(F)(F)C(F)(F)C(F)(F)C(F)(F)F [6:2 Fluorotelomer methacrylate]; conditions: in DMSO
Experimental: as §1

[4] = compound: OCC(F)(F)C(F)(F)C(F)(F)CO [Hexafluoroamylene glycol]; conditions: in DMSO
Experimental: as §1

[5] = compound: FC(F)(F)C(F)(F)C(F)(F)C(F)(F)C(F)(F)C(F)(F)C(F)(F)I [1-Iodopentadecafluoroheptane]; conditions: in DMSO
Experimental: as §1

[6] = compound: FC(F)(F)C(F)(F)C(F)(F)CC1CO1 [1H,1H-Heptafluorobutyl epoxide]; conditions: in DMSO
Experimental: as §1

[7] = compound: NC(=O)C(F)(F)C(F)(F)C(F)(F)C(F)(F)C(N)=O [Octafluoroadipamide]; conditions: in DMSO
Experimental: as §1

[8] = compound: COC(=O)C(F)(F)C(F)(F)OC(F)(C(F)(F)F)C(F)(F)OC(F)=C(F)F [Methyl perfluoro(3-(1-ethenyloxypropan-2-yloxy)propanoate)]; conditions: in DMSO
Experimental: as §1

[9] = compound: FC(F)(F)C(F)(F)C(F)(F)CI [Heptafluorobutyl iodide]; conditions: in DMSO
Experimental: as §1

[10] = compound: O=S(=O)(F)C(F)(F)C(F)(F)C(F)(F)C(F)(F)C(F)(F)C(F)(F)C(F)(F)C(F)(F)F [Perfluorooctanesulfonyl fluoride]; conditions: in DMSO
Experimental: as §1

[11] = compound: O=S(=O)(O)CCC(F)(F)C(F)(F)C(F)(F)C(F)(F)C(F)(F)C(F)(F)F [6:2 Fluorotelomer sulfonic acid]; conditions: in DMSO
Experimental: as §1

[12] = compound: O=C(O)C=CC(F)(C(F)(F)F)C(F)(F)F [3-(Perfluoroisopropyl)-2-propenoic acid]; conditions: in DMSO
Experimental: as §1

[13] = compound: NC(=O)C(F)(F)C(F)(F)C(F)(F)C(F)F; conditions: in DMSO
Experimental: as §1

[14] = compound: O=S(=O)(O)C(F)(F)C(F)(F)C(F)(F)C(F)(F)C(F)(F)C(F)(F)C(F)(F)C(F)(F)C(F)(F)C(F)(F)F [Sodium perfluorodecanesulfonate]; conditions: in DMSO
Experimental: as §1

[15] = compound: FC(F)(F)C(F)(F)CNCC(F)(F)C(F)(F)F [Bis(1H,1H-perfluoropropyl)amine]; conditions: in DMSO
Experimental: as §1

[16] = compound: FC(F)(F)C(F)(F)C(F)(F)C(F)(F)C(F)(F)C(F)(F)CC1CO1 [3-(Perfluorohexyl)-1,2-epoxypropane]; conditions: in DMSO
Experimental: as §1

[17] = compound: NS(=O)(=O)C(F)(F)C(F)(F)C(F)(F)C(F)(F)C(F)(F)C(F)(F)F [Perfluorohexanesulfonamide]; conditions: in DMSO
Experimental: as §1

[18] = compound: O=C(O)C(F)(F)C(F)(F)C(F)(F)C(F)(F)C(F)(F)C(F)(F)C(F)(F)C(F)(F)C(F)(F)C(F)F [11-H-Perfluoroundecanoic acid]; conditions: in DMSO
Experimental: as §1

[19] = compound: C=CC(=O)OCC(F)(F)C(F)(F)C(F)(F)COC(=O)C=C [1H,1H,5H,5H-Perfluoro-1,5-pentanediol diacrylate]; conditions: 6700 nM; in DMSO
Experimental: as §1

BT:PBMC Cytotoxicity
level (log10) ([1]; 6700 nM): 0.0495 ± 0.016 | level (log10) ([1]; 20000 nM): 0.055 | level (log10) ([1]; 60000 nM): 0.114 ± 0.0021 | level (log10) ([2]; 6700 nM): 0.024 ± 0.0042 | level (log10) ([2]; 20000 nM): 0.02 ± 0.0028 | level (log10) ([2]; 60000 nM): 0.0155 ± 0.011 | level (log10) ([3]; 6700 nM): 0.0045 ± 0.021 | level (log10) ([3]; 20000 nM): 0.018 ± 0.03 | level (log10) ([3]; 60000 nM): 0.0285 ± 0.032 | level (log10) ([4]; 6700 nM): 0.008 ± 0.024 | level (log10) ([4]; 20000 nM): 0.008 ± 0.0057 | level (log10) ([4]; 60000 nM): -0.005 ± 0.0099 | level (log10) ([5]; 6700 nM): 0.014 ± 0.0057 | level (log10) ([5]; 20000 nM): 0.0075 ± 0.049 | level (log10) ([6]; 6700 nM): 0.0175 ± 0.026 | level (log10) ([6]; 20000 nM): -0.0025 ± 0.022 | level (log10) ([6]; 60000 nM): 0.017 ± 0.013 | level (log10) ([7]; 6700 nM): 0.0125 ± 0.0021 | level (log10) ([7]; 20000 nM): 0.018 ± 0.011 | level (log10) ([7]; 60000 nM): 0.005 ± 0.051 | level (log10) ([8]; 6700 nM): 0.0195 ± 0.036 | level (log10) ([8]; 20000 nM): 0.049 ± 0.058 | level (log10) ([9]; 6700 nM): 0.0515 ± 0.029 | level (log10) ([9]; 20000 nM): 0.01 ± 0.0028 | level (log10) ([9]; 60000 nM): 0.0125 ± 0.032 | level (log10) ([10]; 6700 nM): -0.001 ± 0.016 | level (log10) ([10]; 20000 nM): -0.01 ± 0.041 | level (log10) ([10]; 60000 nM): -0.005 ± 0.0071 | level (log10) ([11]; 6700 nM): 0.007 | level (log10) ([11]; 20000 nM): 0.0235 ± 0.0064 | level (log10) ([11]; 60000 nM): 0.045 ± 0.0014 | level (log10) ([12]; 6700 nM): -0.016 ± 0.0042 | level (log10) ([12]; 20000 nM): 0.002 ± 0.0042 | level (log10) ([12]; 60000 nM): 0.021 ± 0.0057 | level (log10) ([13]; 6700 nM): -0.001 ± 0.0042 | level (log10) ([13]; 20000 nM): -0.0015 ± 0.0035 | level (log10) ([13]; 60000 nM): 0.016 | level (log10) ([14]; 1500 nM): -0.025 ± 0.023 | level (log10) ([14]; 4400 nM): -0.005 ± 0.0042 | level (log10) ([14]; 13000 nM): -0.0035 ± 0.026 | level (log10) ([14]; 40000 nM): 0.007 ± 0.035 | level (log10) ([15]; 6700 nM): 0.007 ± 0.013 | level (log10) ([15]; 20000 nM): 0.005 ± 0.024 | level (log10) ([15]; 60000 nM): 0.0125 ± 0.013 | level (log10) ([16]; 6700 nM): -0.016 ± 0.0028 | level (log10) ([16]; 20000 nM): -0.017 ± 0.025 | level (log10) ([16]; 60000 nM): 0.0175 ± 0.016 | level (log10) ([17]; 6700 nM): 0.0405 ± 0.011 | level (log10) ([17]; 20000 nM): 0.047 ± 0.027 | level (log10) ([17]; 60000 nM): 0.0775 ± 0.011 | level (log10) ([18]; 6700 nM): 0.0055 ± 0.0035 | level (log10) ([18]; 20000 nM): 0.0375 ± 0.0064 | level (log10) [19]: -0.201 ± 0.0092

BT:sIL-2
level (log10) ([1]; 6700 nM): 0.0385 ± 0.047 | level (log10) ([1]; 20000 nM): 0.104 ± 0.042 | level (log10) ([1]; 60000 nM): 0.13 ± 0.018 | level (log10) ([2]; 6700 nM): 0.0345 ± 0.053 | level (log10) ([2]; 20000 nM): 0.002 ± 0.033 | level (log10) ([2]; 60000 nM): -0.0105 ± 0.011 | level (log10) ([3]; 6700 nM): 0.0005 ± 0.012 | level (log10) ([3]; 20000 nM): -0.0195 ± 0.053 | level (log10) ([3]; 60000 nM): -0.036 ± 0.025 | level (log10) ([4]; 6700 nM): 0.0335 ± 0.022 | level (log10) ([4]; 20000 nM): 0.0145 ± 0.054 | level (log10) ([4]; 60000 nM): 0.0365 ± 0.056 | level (log10) ([5]; 6700 nM): -0.113 ± 0.07 | level (log10) ([5]; 20000 nM): -0.017 ± 0.081 | level (log10) ([6]; 6700 nM): -0.0245 ± 0.0092 | level (log10) ([6]; 20000 nM): -0.055 ± 0.15 | level (log10) ([6]; 60000 nM): 0.022 ± 0.18 | level (log10) ([7]; 6700 nM): 0.137 ± 0.073 | level (log10) ([7]; 20000 nM): 0.116 ± 0.061 | level (log10) ([7]; 60000 nM): 0.126 ± 0.027 | level (log10) ([8]; 6700 nM): -0.0335 ± 0.018 | level (log10) ([8]; 20000 nM): -0.059 ± 0.038 | level (log10) ([9]; 6700 nM): 0.001 ± 0.071 | level (log10) ([9]; 20000 nM): 0.0735 ± 0.028 | level (log10) ([9]; 60000 nM): -0.027 ± 0.058 | level (log10) ([10]; 6700 nM): -0.038 ± 0.058 | level (log10) ([10]; 20000 nM): -0.001 ± 0.042 | level (log10) ([10]; 60000 nM): 0 ± 0.1 | level (log10) ([11]; 6700 nM): -0.0555 ± 0.011 | level (log10) ([11]; 20000 nM): 0.0325 ± 0.018 | level (log10) ([11]; 60000 nM): -0.01 ± 0.031 | level (log10) ([12]; 6700 nM): 0.029 ± 0.058 | level (log10) ([12]; 20000 nM): -0.049 ± 0.12 | level (log10) ([12]; 60000 nM): 0.001 ± 0.0085 | level (log10) ([13]; 6700 nM): 0.002 ± 0.058 | level (log10) ([13]; 20000 nM): -0.056 ± 0.051 | level (log10) ([13]; 60000 nM): 0.04 ± 0.0099 | level (log10) ([14]; 1500 nM): 0.0125 ± 0.09 | level (log10) ([14]; 4400 nM): 0.014 ± 0.051 | level (log10) ([14]; 13000 nM): 0.0265 ± 0.1 | level (log10) ([14]; 40000 nM): 0.12 ± 0.064 | level (log10) ([15]; 6700 nM): -0.011 ± 0.064 | level (log10) ([15]; 20000 nM): 0.012 ± 0.064 | level (log10) ([15]; 60000 nM): 0.0645 ± 0.1 | level (log10) ([16]; 6700 nM): -0.0165 ± 0.049 | level (log10) ([16]; 20000 nM): 0.0215 ± 0.0035 | level (log10) ([16]; 60000 nM): 0.007 | level (log10) ([17]; 6700 nM): -0.018 ± 0.11 | level (log10) ([17]; 20000 nM): -0.0415 ± 0.015 | level (log10) ([17]; 60000 nM): 0.0705 ± 0.00071 | level (log10) ([18]; 6700 nM): -0.0265 ± 0.013 | level (log10) ([18]; 20000 nM): -0.008 ± 0.083 | level (log10) [19]: -0.651 ± 0.08
